{"source": "paper PMC6590088", "about": "(Science signaling, 2010)", "key": {"BRDG1 SH2 domain (WT)": {"target": "T1, BRDG1 SH2 domain (WT) (Homo sapiens, UniProt Q9ULZ2)", "T1 sequence (Q9ULZ2 177-280 limits assumed)": "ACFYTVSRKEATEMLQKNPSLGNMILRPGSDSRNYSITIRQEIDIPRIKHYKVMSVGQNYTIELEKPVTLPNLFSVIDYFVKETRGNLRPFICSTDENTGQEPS", "assay": "Fluorescence polarization binding assay, wild-type BRDG1 SH2 domain", "details": "table S2B"}, "BKS SH2 domain": {"tested_on": "BKS SH2 domain", "assay": "Peptide-binding experiments, BKS SH2 domain", "details": "table S2B"}, "[1]": {"target": "T2, BRDG1 SH2 domain (Asp167-Ser285) C269A (human, UniProt Q9ULZ2 167-285, C269A)", "T2 sequence (looked up)": "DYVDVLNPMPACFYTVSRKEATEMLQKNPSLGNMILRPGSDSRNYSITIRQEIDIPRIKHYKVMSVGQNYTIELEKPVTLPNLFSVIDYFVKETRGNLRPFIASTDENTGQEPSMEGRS", "assay": "crystal structure"}, "[2]": {"target": "NTAL pTyr136 peptide with Leu+4 replaced by Ala (human)", "assay": "fluorescence polarisation"}}, "note": "Non-standard residues stand in square brackets, D forms with d. No end group written: not given here. pY = N[C@@H](Cc1ccc(OP(=O)(O)O)cc1)C(=O)O", "data": [{"molecule": "NSpY^136ENVLICK [NTAL-pTyr^136]", "values": [{"measurement": "affinity for the BRDG1 SH2 domain (in words)", "setting": "BRDG1 SH2 domain (WT)", "value": "high affinities"}, {"measurement": "binding to the BKS SH2 domain (in words)", "setting": "BKS SH2 domain", "value": "bound strongly"}]}, {"molecule": "ANS[pY]ENVLIAK-NH2 (N-terminus assumed; SMILES CC[C@H](C)[C@H](NC(=O)[C@H](CC(C)C)NC(=O)[C@@H](NC(=O)[C@H](CC(N)=O)NC(=O)[C@H](CCC(=O)O)NC(=O)[C@H](Cc1ccc(OP(=O)(O)O)cc1)NC(=O)[C@H](CO)NC(=O)[C@H](CC(N)=O)NC(=O)[C@H](C)N)C(C)C)C(=O)N[C@@H](C)C(=O)N[C@@H](CCCCN)C(N)=O)", "note": "[NTAL phosphopeptide ANSpY136ENVLIAK-NH2]", "values": [{"measurement": "binding result", "setting": "[1]", "value": "binds"}]}, {"molecule": "BRDG1 SH2 domain, wild type (fluorescence polarization) (domain or fragment) ACFYTVSRKEATEMLQKNPSLGNMILRPGSDSRNYSITIRQEIDIPRIKHYKVMSVGQNYTIELEKPVTLPNLFSVIDYFVKETRGNLRPFICSTDENTGQEPS", "values": [{"measurement": "fold reduction in affinity relative to the wild-type NTAL peptide", "setting": "[2]", "value": 12, "unit": "fold"}]}]}
